Test results: patent US12310964B2, “Compositions and methods for the treatment of Lowe Syndrome” (Purdue Research Foundation, priority 2020, dated 2025)

Experiments:
Type in all cases: cell-based, Human
LS patient cells [1] = assay: Cell spreading assay after a predetermined time-point (cell area)
Experimental: Two approaches to monitor cell spreading were used: after a predetermined time-point and at multiple time points.
1) Spreading after a Predetermined Time-Point.
(§1) Human dermal fibroblasts (12 h after seeding) were treated with the indicated drug (or vehicle) in 0.1% serum for the indicated time. After drug treatment, the cells were lifted with 20 mM EDTA (ethylenediaminetetraacetic acid) in PBS (phosphate-buffered saline), pelleted at 300×g for 5 min and resuspended in 1% serum in the presence of drug or vehicle. Cell suspensions were then set in a rotator for 1 hour before seeding them on fibronectin-coated coverslips for 30 min, undisturbed, to allow attachment and spreading. After spreading, coverslips were gently rinsed with PBS and fixed in 4% formaldehyde for 10 min at room temperature. Cells were stained with rhodamine—phalloidin and imaged by epifluorescence microscopy. At least 50 cells were quantified per experiment by tracing and measuring cell areas by using the magic wand tool in ImageJ software (National Institutes of Health (NIH), Bethesda, MD, USA).
(§2) Cell spreading on fibronectin-coated surfaces of cells treated with RhoA modulators in comparison to untreated cells was observed. Cells were fixed and stained with fluorescently labeled-phalloidin after 30 min spreading time at 37° C. Following imaging, cell area measurements were performed.

Normal fibroblasts = assay: as above; settings: 30 min after seeding on fibronectin
Experimental: as §1, §2

LS patient cells [2] = assay: Viability/toxicity assessment (cell counting, morphology, MTT)
Experimental: Cells were incubated with the indicated drugs for the specified times at different concentrations as described in low serum (0.1%) media to avoid substantial protein-mediated drug sequestration. In addition to cell counting post-treatment, a sample of cells seeded on fibronectin-coated coverslips was fixed and stained with fluorescein isothiocyanate (FITC)-phalloidin and DAPI (4′,6-diamidino-2-phenylindole) for cell morphology inspection. Viability was monitored by performing MTT (3-(4,5-dimethylthiazol-2-yl)-2,5-diphenyltetrazolium bromide) assays as follows: Following treatment of cells (in triplicates) with indicated drugs at different concentrations for specified times, media were aspirated and replaced with MTT solution (freshly prepared at 0.5 mg/ml in complete media) and incubated for 1.5 h. Additionally, a blank control with only MTT reagent containing no cells was also prepared. Following incubation, solution was aspirated and MTT was immediately solubilized using 1 mL DMSO (dimethylsulfoxide) (per well) by gentle pipetting. Absorbance values of solubilized MTT solution from the different wells were measured at 570 nm using a spectrophotometer.

[3] = system: HMG-CoA reductase in LS cells; assay: Cholesterol uptake assay; settings: LS patient fibroblasts in Cho-free media
Experimental: Assay for cholesterol uptake was performed using cholesterol-free media and an AbCam kit (ab236212; Cambridge, UK) according to manufacturer's instructions.

Rac1 = Rac1 FRET biosensor assay; settings: LS cells, FRET-based biosensor
Experimental: FIG. 9. […] LS patient cells expressing Rac1 FRET probe were treated with vehicle or rosuvastatin, imaged and FRET signals analyzed by the ratiometric method (*p<0.05, Wilcoxon test).

normal cells = assay: Ciliogenesis assay
Experimental: Cells were seeded on glass cover slips and grown for 24 h in complete media. Then media was replaced by 0.1% serum DMEM (starvation media) containing vehicle or the drug to induce ciliogenesis for the indicated times. Cells were then fixed in 4% formaldehyde—PBS for 10 min and immuno-labeled with anti-acetylated tubulin antibody (see Table 2). At least 50 cells were imaged for every experiment and experiments were repeated at least thrice. The fraction of cells displaying cilia and cilia length were determined as described previously (Coon et al. (2012), supra).

LS patient cells [4] = assay: Cell adhesion by time-lapse microscopy
Experimental: (§3) Human dermal fibroblasts were treated as described above, seeded on fibronectin-coated LabTek chambers, and allowed to attach and spread. Cells were imaged at intervals of 10 min after seeding for 8 h using 20× objective in a Zeiss Axiovert inverted microscope. Number of detaching cells was quantified every 10 min up to the first hour by using the cell counter tool in ImageJ (NIH). To determine spreading kinetics, individual cells were tracked in each time lapse image and were scored from 1-5 based on general cell morphology. Briefly, cells that were just attached and looked circular with no protrusions or visible extensions received a score of 1. Cells with needle-like (filopodia) projections were scored 2, cells with lamellopodia-like extensions were scored 3, cells with more extended lamellopodia-like extensions and increased cell area were given a score of 4, and a further increase in cell area, often accompanied by isotropic spread morphology, was given a score of 5.
Alternatively, cells were treated as described above and allowed to attach on fibronectin-coated dishes. Immediately after seeding, the cells were imaged with a 10× objective simultaneously using up to 3 Cytosmart Imaging Systems (Lonza, Basel, Switzerland) at intervals of 30 s for 2 h. Number of cells attached was quantified every 10 min up to the first hour using the Cell Counter tool in ImageJ software (NIH). […]

LS patient cells [5] = assay: Spreading at multiple time points (spreading score, time-lapse); settings: LS patient cells treated with rosuvastatin; non-linear regression of FIG. 4 data
Experimental: as §3
A von Bertalanffy logistic model was adopted to fit the data presented in FIG. 3A (adhesion) and FIG. 4 (spreading) as shown in Table 3. […] The associated error ΔK was estimated using standard rules of error propagation based on the determined T0.5 error (ΔT0.5), according to ΔK=K(ΔT0.5/T0.5).

[6] = system: Focal Adhesion Kinase (FAK); assay: Focal adhesion immunofluorescence (phospho-FAK), confocal microscopy; settings: LS cells
Experimental: Cells were prepared as described under “Spreading after a pre-determined time point.” After fixation, indirect immunofluorescence was performed using antibodies against phospho-FAK (Y397) or vinculin. Briefly, cells were gently washed with PBS, fixed with 4% formaldehyde-PBS for 10 min and permeabilized using 0.25% Triton-X 100 in PBS for 20 min, followed by blocking with 5% BSA (bovine serum albumin) in PBS for 30 min. Cells were also immuno-stained with Phalloidin-FITC and DAPI to label the actin cytoskeleton and nucleus, respectively. Images were acquired at the Indiana O'Brien Center for Biological Microscopy (ICBM; Division of Nephrology, Indiana University School of Medicine, Indianapolis, IN, USA) using an Olympus IX81 inverted confocal microscope. A 60× Oil objective (NA 1.42) was used and randomly selected fields were imaged using constant voltage, gain and intensity for the different groups, as well as uniform step size (0.19 μm) using sequential image collection mode.

peripherally activated FAK (phospho-Tyr397) abnormality [6]: alleviated
Structure (SMILES): CC(C)c1nc(N(C)S(C)(=O)=O)nc(-c2ccc(F)cc2)c1/C=C/[C@@H](O)C[C@@H](O)CC(=O)O [rosuvastatin]
LS spreading phenotype alleviation, acute dose (LS patient cells [1]; 100 μM for 1 h): Phenotype alleviation was observed
cell spreading / membrane remodeling phenotype in cells from another LS patient (LS patient cells [1]; LS2 cells, FIG. 8A): ameliorated
LS cell spreading phenotype (LS patient cells [1]; LS patient fibroblasts, 30 min after seeding on fibronectin): mitigated to a certain extent the LS spreading phenotype
ranking of statins: rescue effect over needed dose and toxicity (LS patient cells [1]; LS spreading defects): produced the best results
cell spreading of normal cells (Normal fibroblasts): No obvious effect
toxicity, chronic exposure (LS patient cells [2]; 10 μM for ≥72 h): relatively innocuous
toxicity, acute dose (LS patient cells [2]; 100 μM, exposure time≥15 h): induced toxicity
toxicity (viability and stress-induced changes in morphology) (LS patient cells [2]; LS cells after exposure to statins): minimal toxicity
uptake of fluorescently labeled Cho (inhibition of cholesterol biosynthesis) [3]: less acute inhibition of cholesterol biosynthesis
Rac1 activation levels (Rac1): raised
ciliogenesis by normal cells (normal cells): No obvious effect
LS cell adhesion defect (LS patient cells [4]; LS cells on fibronectin-coated surfaces): alleviated the LS cell adhesion defect
Adhesion, Process Continuous Rate (LS patient cells [4]; LS patient cells treated with rosuvastatin, fibronectin-coated surfaces, non-linear regression of FIG. 3A data): 35 ± 5 min^−1 × 10^3
Spreading, Process Continuous Rate (LS patient cells [5]): 24 ± 2 min^−1 × 10^3
